Experimental data as given in patent US20110065735A1, “SUBSTITUTED QUINAZOLINES” (Shire LLC, priority 2008, published 2011).
Like-named read-outs stand apart in the source and are kept apart here.

Experiments:
megakaryocytopoiesis [1] = assay: inhibition of TPO-induced megakaryocytopoiesis (differentiation of human CD34+ stem cells into megakaryocytes); type: cell-based; details: read-out: anti-megakaryocytic IC50
From the text: Such activity may be assessed using a well established model. Assessment of the in vitro anti-megakaryocytic activity—and potentially therefore the platelet lowering capability—of the anagrelide prodrugs can be determined using the model of megakaryocytopoiesis (Cohen-Solal et al., Thromb. Haemost. 1997, 78:37-41 and Cramer et al., Blood, 1997, 89:2336-46). This involves examining the differentiation of human CD34^+ stem cells into megakaryocytes which ultimately give rise to blood platelets.

[2] = in vivo; cited from earlier work
megakaryocytopoiesis [3] = details: cited from earlier work
[4] = system: human phosphodiesterase III (PDE III); assay: PDE III inhibition; type: biochemical
[5] = human pharmacokinetics of anagrelide and its metabolite
[6] = system: erythroid or myelomonocytic differentiation; details: stimulated by erythropoietin or granulocyte-macrophage colony-stimulating factor; cited from earlier work
in vivo = details: dog
Method: The potential benefit of improved water solubility on the absorption of these open-ring analogues was shown in a comparative bioavailability study in the dog. Using the unsubstituted ethyl-5,6-dichloro-3,4-dihydro-2-(1H)-iminoquinazoline-3-acetate HBr as a model compound, a comparison was made of the systemic availability of anagrelide when given as this compound or as anagrelide itself in equimolar doses (7.7 & 6.1 mg/kg respectively).
The lesser variability was consistent with more efficient absorption. This study illustrated the potential benefits of the open-ring prodrugs to improve absorption.

aqueous solubility = type: physicochemical
[7] = target: human phosphodiesterase III (PDE III); details: cited from earlier work
[8] = conversion of prodrug to anagrelide in human plasma (LC/MS-MS); type: in vitro ADME; details: spiked 100 ng/mL, room temperature, first point of measurement (immediately after mixing)
Method: Such prodrugs are likely to be extremely rapidly and completely cyclised in plasma to the closed ring 3-alkylanagrelide analogues. […] Human plasma was spiked with anagrelide prodrug (final concentration 100 ng/mL). Immediately after mixing, and at 15, 30, 45 and 60 minutes afterward samples were analysed for anagrelide prodrug and anagrelide.

## CC1(C)C(=O)NC2=Nc3ccc(Cl)c(Cl)c3CN21 [3,3-dimethyl anagrelide]
Megakaryocytopoiesis [1]
  IC50: ~160 nM

## O=C1NC2=Nc3ccc(Cl)c(Cl)c3CN2C1O (stereo not drawn) [3-hydroxyanagrelide]
[2]
  typical half-life: 2.5 h
Megakaryocytopoiesis [3]
  potency in inhibition of megakaryocytopoiesis relative to parent drug: no more potent than the parent drug
[4]
  potency as PDE III inhibitor relative to anagrelide: over 40 fold
[5]
  in vivo exposure relative to parent drug: 2-3 fold

## O=C1CN2Cc3c(ccc(Cl)c3Cl)N=C2N1 [Anagrelide, 6,7-dichloro-1,5-dihydroimidazo[2,1-b]-quinazolin-2(3H)-one]
[6]
  effect on erythroid or myelomonocytic differentiation: does not affect
[2]
  first pass effect: > 50%
  typical half-life: 1.5 h
Megakaryocytopoiesis [3]; estimated, background statement, read-out: IC50 inhibition of TPO-induced megakaryocytopoiesis
  IC50: ~26 nM
In vivo; male
  metabolite-to-drug exposure ratio: 1.5
In vivo; male, AUC for anagrelide, range
  AUC: 21.6 to 188 ng·h/mL
In vivo; male, Cmax for anagrelide, range
  Cmax: 9.5 to 44.3 ng/mL
Aqueous solubility; aqueous, pH 7, aqueous buffer, read-out: aqueous solubility
  solubility: < 10 µg/mL
[7]
  IC50: ~29 nM
Megakaryocytopoiesis [1]; Homo sapiens
  IC50: 27 nM

## Br.CCOC(=O)CN1Cc2c(ccc(Cl)c2Cl)NC1=N [ethyl-5,6-dichloro-3,4-dihydro-2-(1H)-iminoquinazoline-3-acetate HBr]
[8]
  prodrug remaining in human plasma: no prodrug could be found
In vivo
  metabolite-to-drug exposure ratio: 0.9
In vivo; 6.1 mg/kg
  fold higher Cmax for anagrelide than after anagrelide itself: approximately 17 fold
  mean fold higher AUC for anagrelide than after anagrelide itself: 16 fold
Aqueous solubility; distilled water
  solubility: ~5500 µg/mL

## Cc1[nH]c(=O)c(C#N)cc1-c1ccncc1 [milrinone]
[7]
  IC50: 170 to 350 nM
